# Results published in ChEMBL document CHEMBL1143038, “Highly oxygenated and unsaturated metabolites providing a diversity of hispidin class antioxidants in the medicinal mushrooms Inonotus and Phellinus” (Bioorg Med Chem, 2007).
# pIC50: −log10 of the molar value.
# Assays:
# Format in all cases: functional
# [1] = system: Radical scavenging activity; experiment: Antioxidant activity assessed as DPPH radical scavenging activity
# [2] = Antioxidant activity assessed as ABTS radical scavenging activity
# [3] = Antioxidant activity assessed as superoxide radical anion scavenging activity
Compound,pIC50 [1],pIC50 [2],pIC50 [3]
O=C(O)/C=C/c1ccc(O)c(O)c1 [CAFFEIC ACID],5.43,4.59,5.66
VITAMIN E,< 4.00,4.94,5.47
CC(=O)/C(=C\c1ccc(O)c(O)c1)c1c(O)cc(/C=C/c2ccc(O)c(O)c2)oc1=O [INTERFUNGIN B],5.60,4.95,5.74
CC(=O)/C=C(O)/C(=C\c1ccc(O)c(O)c1)c1c(O)cc(/C=C/c2ccc(O)c(O)c2)oc1=O [INTERFUNGIN A],5.20,4.85,5.57
COC(=O)/C(=C\c1ccc(O)c(O)c1)c1c(O)cc(/C=C/c2ccc(O)c(O)c2)oc1=O [INTERFUNGIN C],5.43,4.95,5.51
